From patent publication US20240215584A1, “ARTICLE HAVING ANTIVIRAL PROPERTIES, ARTICLE HAVING ANTIMICROBIAL PROPERTIES, AND ARTICLE HAVING ANTIFUNGAL PROPERTIES” (NATIONAL INSTITUTE OF ADVANCED INDUSTRIAL SCIENCE AND …, priority 2021, published 2024)
≈ marks a conversion by molar mass, not a printed value. Like-named read-outs stand apart in the source and are kept apart here.

Legend:
[1] = system: methicillin-resistant Staphylococcus aureus OM584; assay: Minimum inhibitory concentration on bacteria; conditions: 20 h, read-out: minimum inhibitory concentration (MIC)
Procedure: (§1) First, a method for measuring the minimum inhibitory concentration on the bacteria will be described. First, 100 μL per hole of a 96-hole test plate was prepared using a Mueller Hinton medium (CAMHB) (and blood added as needed) supplemented with 20 mg/L of Ca^2+ and 10 mg/L of Mg^2+ to give a 2-fold dilution series. […] Each bacterium was cultured in CAMHB (blood added as needed) and added to each of the holes of the test plate at approximately 10000 CFU/mL. The cultures were cultivated at 37° C. for 20 hours, and growth of the bacteria was visually confirmed, and the lowest concentration without growth of the bacteria was defined as the minimum inhibitory concentration (MIC: Minimum Inhibitory Concentration).
(§2) As the bacteria, methicillin-sensitive Staphylococcus aureus 209P, methicillin-resistant Staphylococcus aureus N3115, methicillin-resistant Staphylococcus aureus OM584, vancomycin moderate resistant Staphylococcus aureus Mu50, Pseudomonas aeruginosa wild strain PAO1, Pseudomonas aeruginosa resistance gene quadruple disruption strain YM64, Fecaris ATCC29212, Vancomycin-resistant Fecaris ATCC51299, and Vancomycin-resistant Fecaris NCTC12201 were used.
(§3) Minimum inhibitory concentrations (MIC) were measured against drug-sensitive bacteria and drug-resistant bacteria.

[2] = system: vancomycin moderate resistant Staphylococcus aureus Mu50; assay: Minimum inhibitory concentration on bacteria; conditions: 20 h, read-out: minimum inhibitory concentration (MIC)
Procedure: as §1, §2, §3

[3] = system: Vancomycin-resistant Fecaris NCTC12201; assay: Minimum inhibitory concentration on bacteria; conditions: 20 h, read-out: minimum inhibitory concentration (MIC)
Procedure: (§4) First, 100 μL per hole of a 96-hole test plate was prepared using a Mueller Hinton medium (CAMHB) (and blood added as needed) supplemented with 20 mg/L of Ca^2+ and 10 mg/L of Mg^2+ to give a 2-fold dilution series. […] Each bacterium was cultured in CAMHB (blood added as needed) and added to each of the holes of the test plate at approximately 10000 CFU/mL. The cultures were cultivated at 37° C. for 20 hours, and growth of the bacteria was visually confirmed, and the lowest concentration without growth of the bacteria was defined as the minimum inhibitory concentration (MIC: Minimum Inhibitory Concentration).
as §2

[4] = Residual amount on SUS substrate after ultrasonic cleaning in water; assay type: physicochemical; conditions: 125 μg/cm^2 applied on SUS substrate
Procedure: First, chlorhexidine was dissolved in acetone so as to be 1 mg/mL. […] Chlorhexidine gluconate was dissolved in acetone so as to be 1 mg/mL. […] Subsequently, the concentration of chlorhexidine and the concentration of chlorhexidine gluconate eluted in water were measured by UV-Vis (colorimetric method), and an amount of chlorhexidine and an amount of chlorhexidine gluconate remaining on the substrate were back-calculated from the concentration.

[5] = system: methicillin-sensitive Staphylococcus aureus 209P; assay: Minimum inhibitory concentration on bacteria; conditions: 20 h, read-out: minimum inhibitory concentration (MIC)
Procedure: as §4, §2

[6] = system: Candida ATCC12201; assay: Minimum inhibitory concentration on fungi; assay type: cell-based; conditions: Candida ATCC12201, RPMI1640, 37 °C, 48 hours
Procedure: The bacteria were cultured in the RPMI1640 and added to each of the holes of the test plate at approximately 200 CFU/mL. The cultures were cultivated at 37 °C for 48 hours, and the growth of the bacteria was visually confirmed, and the minimum concentration without the growth of the bacteria was referred as MIC. Candida ATCC12201 was used as the fungi. […] The minimum inhibitory concentration (MIC) was measured against Candida.

[7] = system: Fecaris ATCC29212; assay: Minimum inhibitory concentration on bacteria; conditions: 20 h, read-out: minimum inhibitory concentration (MIC)
Procedure: as §1, §2, §3

[8] = system: methicillin-resistant Staphylococcus aureus N3115; assay: Minimum inhibitory concentration on bacteria; conditions: 20 h, read-out: minimum inhibitory concentration (MIC)
Procedure: as §4, §2

[9] = system: Pseudomonas aeruginosa wild strain PAO1; assay: Minimum inhibitory concentration on bacteria; conditions: PAO1, 20 h, read-out: minimum inhibitory concentration (MIC)
[10] = system: sheep defibrillated blood (red blood cells); conditions: 30 min, pH 7.4
Procedure: 25 μL of sheep defibrillated blood, a Tyrode solution (NaCl 137 mM, KCl 2.7 mM, CaCl2) 1.0 mM, HEPES 10 mM (pH7.4)), and chlorhexidine gluconate or chlorhexidine solution were mixed. A mixture of 25 μL of sheep defibrillated blood and 975 μL of a Tyrode solution was used as a control, and a mixture of 25 μL of sheep defibrillated blood and 975 μL of purified water was used as a complete hemolysis. The mixtures were left standing at 37° C. for 30 minutes. Thereafter, the mixed liquid is centrifuged, and the supernatant is collected. Absorbance at 545 nm was measured. A hemolysis rate was calculated according to the following formula.

[11] = Calcein efflux rate, bacterial composition artificial membrane (liposomes); conditions: for Calcein Efflux Rate (%) Bacterial Composition Artificial Membrane: 30° C., 30 minutes
[12] = system: Vancomycin-resistant Fecaris ATCC51299; assay: Minimum inhibitory concentration on bacteria; conditions: 20 h, read-out: minimum inhibitory concentration (MIC)
Procedure: as §1, §2, §3

[13] = Calcein efflux rate, viral composition artificial membrane (liposomes); conditions: for Calcein Efflux Rate (%) Virus Composition Artificial Membrane: 30° C., 30 minutes
[14] = 2 minutes ultrasonic cleaning in 60 ml of water at 25° C.
[15] = 10 minutes ultrasonic cleaning in 60 ml of water at 25° C.

Structure (SMILES) | MIC [1] [µg/mL] | MIC [2] [µg/mL] | MIC [3] [µg/mL] | residual amount on substrate [4, 14] [μg/cm^2] | residual amount on substrate [4, 15] | MIC [5] [µg/mL] | MIC [6] [µg/mL] | MIC [7] [µg/mL] | MIC [8] [µg/mL] | MIC [9] [µg/mL] | MIC [12] [µg/mL] | further results
[H]/N=C(\N/C(=N/[H])NCCCCCCNC(=N)NC(=N)Nc1ccc(Cl)cc1)Nc1ccc(Cl)cc1 [chlorhexidine] | 4 (≈ 7.91 µM) | 2 (≈ 3.96 µM) | 4 (≈ 7.91 µM) | 45.4 | 43.0 μg/cm^2 | 0.5 (≈ 0.989 µM) | 2 (≈ 3.96 µM) | 2 (≈ 3.96 µM) | 1 (≈ 1.98 µM) | 16 (≈ 31.7 µM) | 4 (≈ 7.91 µM) | hemolytic activity ([10]; 0.028 %): 11.7%; hemolytic activity ([10]; 0.056 %): 30.2%; Calcein Efflux Rate (%) Bacterial Composition Artificial Membrane ([11]; 1 μM (0.51 μg/mL)): −2.7%; Calcein Efflux Rate (%) Bacterial Composition Artificial Membrane ([11]; 2 μM (1.01 μg/mL)): 2.8%; Calcein Efflux Rate (%) Bacterial Composition Artificial Membrane ([11]; 4 μM (2.02 μg/mL)): 11.5%; Calcein Efflux Rate (%) Bacterial Composition Artificial Membrane ([11]; 8 μM (4.04 μg/mL)): 54.0%; Calcein Efflux Rate (%) Bacterial Composition Artificial Membrane ([11]; 16 μM (8.09 μg/mL)): 91.9%; Calcein Efflux Rate (%) Bacterial Composition Artificial Membrane ([11]; 32 μM (16.17 μg/mL)): 95.1%; Calcein Efflux Rate (%) Bacterial Composition Artificial Membrane ([11]; 64 μM (32.35 μg/mL)): 92.9%; Calcein Efflux Rate (%) Bacterial Composition Artificial Membrane ([11]; 128 μM (64.70 μg/mL)): 104.5%; concentration at which calcein was still found to elute ([11]; bacterial composition artificial membrane): 1.01 µg/mL; Calcein Efflux Rate (%) Virus Composition Artificial Membrane ([13]; 1 μM (0.51 μg/mL)): 6.5%; Calcein Efflux Rate (%) Virus Composition Artificial Membrane ([13]; 2 μM (1.01 μg/mL)): 15.9%; Calcein Efflux Rate (%) Virus Composition Artificial Membrane ([13]; 4 μM (2.02 μg/mL)): 39.8%; Calcein Efflux Rate (%) Virus Composition Artificial Membrane ([13]; 8 μM (4.04 μg/mL)): 68.5%; Calcein Efflux Rate (%) Virus Composition Artificial Membrane ([13]; 16 μM (8.09 μg/mL)): 85.7%; Calcein Efflux Rate (%) Virus Composition Artificial Membrane ([13]; 32 μM (16.17 μg/mL)): 91.6%; Calcein Efflux Rate (%) Virus Composition Artificial Membrane ([13]; 64 μM (32.35 μg/mL)): 108.3%; Calcein Efflux Rate (%) Virus Composition Artificial Membrane ([13]; 128 μM (64.70 μg/mL)): 120.9%; concentration at which calcein was still confirmed to elute ([13]; virus composition artificial membrane): 0.51 µg/mL
OC(Cn1cncn1)(Cn1cncn1)c1ccc(F)cc1F [fluconazole] |  |  |  |  |  |  | 0.25 (≈ 0.816 µM) |  |  |  |  | 
[H]/N=C(\N/C(=N/[H])NCCCCCCNC(=N)NC(=N)Nc1ccc(Cl)cc1)Nc1ccc(Cl)cc1 [chlorhexidine gluconate] |  |  |  | 12.7 | could not be calculated |  |  |  |  |  |  | hemolytic activity ([10]; 0.05 %): 9.3%; hemolytic activity ([10]; 0.1 %): 75.8%
CCn1cc(C(=O)O)c(=O)c2cc(F)c(N3CCNCC3)cc21 [Norfloxacin, norfloxacin] | ≥ 64 | ≥ 64 | 16 (≈ 50.1 µM) |  |  | 2 (≈ 6.26 µM) |  | 16 (≈ 50.1 µM) | 4 (≈ 12.5 µM) | 2 (≈ 6.26 µM) | 8 (≈ 25.1 µM) | 
